Reference: patent US10933068B2, “Modulators of DUX4 for regulation of muscle function” (GENEA BIOCELLS USA (HOLDINGS), INC., priority 2016, dated 2021)

Experiments:
DUX4-GFP reporter [1] = experiment: Chemically induced DUX4-GFP reporter induction (ASK10 and analogs); format: cell-based, human
Excerpt: Cells were transduced with a lentivirus coding for a synthetic DUX4-responsive promoter driving a nuclear turboGFP reporter gene ([…] et al., 2015) and selected using G418 antibiotic (Thermo Fisher). Myogenic differentiation was induced using the Genea Biocells muscle differentiation protocol (Caron et al., 2016). […] Media was changed every other day for 10 days. Myogenic precursors were then re-seeded by treatment with Passaging Solution (Genea Biocells) followed by Neutralizing Solution (Genea Biocells), were pelleted, and were plated at 2500 cells/cm2 in Stage 2 Myoblast Medium (Genea Biocells). […] After treatment, confluent myoblasts were switched to Stage 3 Myotube Medium (Genea Biocells). Cells were imaged hourly for phase and DUX4-GFP reporter fluorescence with the Incucyte live cell imaging system (Essen Bioscience) and Incucyte analysis software reported GFP+ events/mm2. […] Nuclei were quantified using the In Cell 6000 imaging and analysis suite. The system as described herein can be used as a sensitive low-, medium- or high-throughput screening assay to identify compounds that suppress DUX4 following an experimental procedure as outlined in FIG. 19. […] Test compounds are added either at the beginning of differentiation stage 2 or stage 3 and may be present throughput the experiment.

[2] = tested on: Normal cell lines (Genea 002 and Genea 015) and an FSHD-affected cell line (Genea 096); experiment: Phenotypic marker screen (Example 2): cell count / toxicity; format: cell-based, human; conditions: compound added for 24 hours; for toxicity (cell count): analyzed at the end of the myotube stage, cell lines tested overall
Procedure: (§1) Briefly, stem cell lines were cultured in commercially available media, mTeSR (Stem Cell Technologies) or M2 (Genea Biocells) and dissociated into single cells using Passaging Solution (Genea Biocells). Cells were plated in Myogenic Induction Medium to induce myogenic differentiation and incubated at 37° C. and 5% CO2 for 7 to 10 days while performing media changes every other day. Once confluent, cells were dissociated into single cells using Passaging Solution and replated in Myoblast Medium (Genea Biocells) while performing media changes every other day. After 7-10 days the medium was switched to Myotube Medium (Genea Biocells) without any further media changes.
In one example, experiments are set up according to Example 1 with cells being cultured in collagen 1-coated optical bottom 96-well plates. At the end of the culture period cells are fixed with 4% formalin and immunofluorescence stained for DUX4, Ki67, MyoD and/or MF20 or MHC. […] Staining with MF20 or MHC is used to visualize myotube morphology. High-content screening is performed to quantitatively measure the proportion of DUX4, Ki67 and MyoD-positive cells as well as myotube diameter and the number of nuclei per myotube.
Normal cell lines (Genea 002 and Genea 015) and an FSHD-affected cell line (Genea 096) were cultured and differentiated according to Example 1. Compounds were added for 24 hours either at the beginning of the myoblast stage or at the end of the myoblast stage. Cells were further differentiated to myotubes and analyzed 7 days later at the end of the myotube stage (see FIG. 2) by immunofluorescence staining for MyoD, Ki67 and MF20.

[3] = tested on: Genea049 reporter cell line; experiment: Cell death / overall cell numbers by video microscopy; format: cell-based, human; conditions: 24 hours pulse at the beginning of the myoblast stage
Procedure: In another example, Genea049 reporter cell line was differentiated according to Example 1 and the compounds were added for 24 hours at the beginning of the myoblast stage. Cells were further differentiated to myotubes (see FIG. 2) and analyzed continuously by video fluorescence microscopy using an Incucyte Zoom instrument (Essen Bioscience).

[4] = tested on: FSHD-affected Gen049 human Embryonic Stem Cells (hESCs); experiment: ASK10 cytotoxicity in DUX4-GFP induction experiments; format: cell-based; conditions: FIG. 11A cited
Excerpt: Precursors were then converted to myoblasts by culture in Stage 2 Medium for 7 days with media changes every second day until confluence. […] After treatment, confluent myoblasts were switched to Stage 3 Myotube Medium (Genea Biocells). Cells were imaged hourly for phase and DUX4-GFP reporter fluorescence with the Incucyte live cell imaging system (Essen Bioscience) and Incucyte analysis software reported GFP+ events/mm2. […] Nuclei were quantified using the In Cell 6000 imaging and analysis suite.

[5] = tested on: normal (Genea016) and FSHD-affected (Genea049 and Genea050) cell lines; experiment: Timing of compound contact: cell counts; format: cell-based, human
Procedure: as §1, with “changes. After 4-7 days many multi-nucleated myotubes were observed and the cells were analyzed using a suitable assay.” for “changes.”
(§2) In another example, normal (Genea016) and FSHD-affected (Genea049 and Genea050) cell lines were differentiated according to Example 1. A DNA methyltransferase inhibitor (Compound #1) (ASK10) or a histone methyltransferase inhibitor (Compound #2) (ASK19) was added for 24 hours either at the beginning of the myoblast stage (Group 1) or at the end of the myoblast stage (Group 2). Cells were further differentiated to myotubes and analyzed 7 days later at the end of the myotube stage (see FIG. 2). Effects on cell counts (FIGS. 11A and 11B) and MF20-positive myotubes (FIGS. 12A and 12B) were assessed.

[6] = tested on: DUX4 reporter in the FSHD-affected Genea049 reporter cell line; experiment: DUX4 reporter, high-content imaging; format: cell-based, human; conditions: added for 24 hours at the end of the myoblast stage; analyzed 7 days later
Procedure: (§3) Lentivirus constructs were used to stably integrate a DUX4 reporter into human embryonic stem cell lines (FIG. 5). Cells were plated in collagen I-coated 12-well plates (Corning BIOCOAT™-Cat #354500) in M2 hESC maintenance medium (Genea Biocells). Since cell lines grow at different rates and may optimally transduce at distinct cell densities, each line was plated at four different cell densities and transduced for 2 hours using a vector preparations diluted at 1:20 (50 ul/ml) in M2 medium containing 8 ug/ml polybrene. A pilot “kill curve” was established using the same non-transfected cell lines to help define the baseline antibiotic concentration required during the selection process. Based on the results, all transduced cells were selected with 300 ug/ml of G418 for at least 10 days. The antibiotic selected cells were further expanded in M2 (2× T175 flasks for each cell line) and samples were cryopreserved as stocks of 0.5 to 1×10^6 cells/vial.
In another example, Genea049 reporter cell line was differentiated according to Example 1 and the compounds were added for 24 hours at the end of the myoblast stage. Cells were further differentiated to myotubes and analyzed 7 days later at the end of the myotube stage (see FIG. 2) by fixation, counterstaining nuclei with Hoechst and visualizing nuclei and the reporter by high-content imaging.

[7] = tested on: Normal cell lines (Genea 002 and Genea 015) and an FSHD-affected cell line (Genea 096); experiment: Phenotypic marker screen (Example 2): myogenesis, MF20 and myotube length; format: cell-based, human; conditions: compound added for 24 hours
Procedure: as §1
In one example, experiments are set up according to Example 1 with cells being cultured in collagen 1-coated optical bottom 96-well plates. […] High-content screening is performed to quantitatively measure the proportion of DUX4, Ki67 and MyoD-positive cells as well as myotube diameter and the number of nuclei per myotube.
Normal cell lines (Genea 002 and Genea 015) and an FSHD-affected cell line (Genea 096) were cultured and differentiated according to Example 1. […] Cells were further differentiated to myotubes and analyzed 7 days later at the end of the myotube stage (see FIG. 2) by immunofluorescence staining for MyoD, Ki67 and MF20.

[8] = tested on: normal (Genea016) and FSHD-affected (Genea049 and Genea050) cell lines; experiment: Timing of compound contact: MF20-positive myotubes; format: cell-based, human; conditions: 24 hours treatment, analyzed at the end of the myotube stage
Procedure: as §1, with “changes. After 4-7 days many multi-nucleated myotubes were observed and the cells were analyzed using a suitable assay.” for “changes.”
as §2

DUX4-GFP reporter [9] = experiment: Rescue of ASK10- / ASK10 analog-induced DUX4-GFP by ASK19 pre-treatment; format: cell-based, human
Procedure: Genea's FSHD-affected Gen049 human Embryonic Stem Cells (hESCs) were cultured on geltrex (Thermo Fisher) using the feeder-free mTeSR system (StemCell Technologies). Cells were transduced with a lentivirus coding for a synthetic DUX4-responsive promoter driving a nuclear turboGFP reporter gene (Rickard et al., 2015) and selected using G418 antibiotic (Thermo Fisher). Myogenic differentiation was induced using the Genea Biocells muscle differentiation protocol (Caron et al., 2016). Reporter stem cells were treated with Accutase (StemCell Technologies) and plated as single cells at 5200 cells/cm2, then changed to Stage 1 Myogenic Induction Medium (Genea Biocells). Media was changed every other day for 10 days. Myogenic precursors were then re-seeded by treatment with Passaging Solution (Genea Biocells) followed by Neutralizing Solution (Genea Biocells), were pelleted, and were plated at 2500 cells/cm2 in Stage 2 Myoblast Medium (Genea Biocells).
In rescue experiments, Stage 2 Day 1 cells were then treated with either 1 uM ASK19 or DMSO vehicle for 24 hours. Precursors were then converted to myoblasts by culture in Stage 2 Medium for 7 days with media changes every second day until confluence. Myoblasts were passaged and seeded at 9000 cells/cm2 in 96 well format, allowed to grow to confluence, and treated in Stage 2 Medium for indicated time (0-48 hours) with 0.01 uM-3 uM of ASK10, ASK10 analog, DMSO vehicle, or media only (FIGS. 15A-15B). After treatment, confluent myoblasts were switched to Stage 3 Myotube Medium (Genea Biocells). Cells were imaged hourly for phase and DUX4-GFP reporter fluorescence with the Incucyte live cell imaging system (Essen Bioscience) and Incucyte analysis software reported GFP+ events/mm2. After imaging, cells were fixed in 10% Formalin (Thermo Fisher) for 15 minutes and stained for 2 hours using PBS (Invitrogen) with 5% BSA (Thermo Fisher), 0.25% Triton-X (Thermo Fisher), and 1:5000 Hoechst (Thermo Fisher) DNA dye. Nuclei were quantified using the In Cell 6000 imaging and analysis suite.

[10] = tested on: DUX4 reporter in the FSHD-affected Genea049 reporter cell line; experiment: DUX4 reporter, time-lapse video fluorescence microscopy; format: cell-based, human; conditions: added for 24 hours at the beginning of the myoblast stage; analyzed continuously
Procedure: as §3
In another example, experiments are set up according to Example 1 with FSHD-affected DUX4 reporter cells being cultured in collagen I-coated 96-well plates. […] The cells are continuously observed by time-lapse video microscopy (IncuCyte Zoom, Essen Bioscience) and the number of GFP-positive (DUX4-expressing) nuclei are detected and quantified throughout the culture period. […]

[11] = tested on: myotubes from FSHD-affected cell lines; experiment: Chaetocin toxicity, total nuclei count; format: cell-based, human; conditions: at 50-100 nM
Procedure: (§4) In myotubes from FSHD-affected cell lines DUX4 expression was observed by immunofluorescence staining using DUX4 E5-5 antibody, either spontaneously or by transfecting cells with a DUX4 expression vector (FIG. 3). In some cases, the expression of DUX4 in myogenic cells may be a rare event. Thus, to increase the assay window and sensitivity, chaetocin was used to increase the number of cells expressing DUX4 (FIG. 4A). […] In some examples, compounds may be screened in the presence of 50-200 nM chaetocin, a compound described to result in elevated levels of DUX4 expression in human myoblast cultures (FIG. 2).

DUX4 expression = experiment: Chaetocin induction of DUX4 expression, immunofluorescence staining; format: cell-based, human; conditions: myotubes from FSHD-affected cell lines, DUX4 E5-5 antibody
Procedure: as §1, with “changes. After 4-7 days many multi-nucleated myotubes were observed and the cells were analyzed using a suitable assay.” for “changes.”
as §4

Nc1ncn([C@H]2C[C@H](O)[C@@H](CO)O2)c(=O)n1 [ASK10, decitabine]
EC50 (DUX4-GFP reporter [1]; Homo sapiens, DUX4-GFP cell number per well, read-out: EC50 at which the most significant DUX4 expression induction was detected): ≥ 1000 nM | DUX4 expression activation versus vehicle control (DUX4-GFP reporter [1]; about 48 hours post-exposure): 12-15 fold | time at which DUX4 induction plateaus (DUX4-GFP reporter [1]; post-exposure): about 120 hours | toxicity (cell count) [2]: highly toxic at higher doses | toxicity to FSHD-affected cells ([2]; FSHD-affected cells (Genea 096)): less so | time of cell death after the compound had been removed [3]: 6 to 7 days | cytotoxicity [4]: did not display any noticeable cytotoxicity | toxicity, normal versus FSHD-affected myoblasts ([5]; 24 hours treatment): much more toxic for normal myoblasts than for FSHD-affected myoblasts | toxicity (cell counts), FSHD ([5]; added at the end of the myoblast stage (Group 2), FSHD): not toxic | toxicity (cell counts), normal ([5]; added at the end of the myoblast stage (Group 2), normal): only mildly toxic | toxicity (cell counts) ([5]; added for 24 hours at the beginning of the myoblast stage (Group 1)): significant toxicity at higher doses

CC[C@H](C)n1cc(C)c2c(C(=O)NCc3c(C)cc(C)[nH]c3=O)cc(-c3ccc(N4CCNCC4)nc3)cc21 [ASK19, GSK126]
DUX4-positive cells [6]: no effect | myogenesis, cells expressing MF20 ([7]; analyzed at the end of the myotube stage): more MF20-positive cells | myotube length ([7]; all cell lines tested): longer myotubes | MF20-positive myotubes (myogenesis) [8]: dose-dependent increase | EC50 (DUX4-GFP reporter [9]; ASK10- and ASK10-15-induced, tentative, read-out: EC50 of rescue of induced DUX4-GFP production): 250 to 500 nM | GFP+ events over time, ASK19/ASK10 curve (DUX4-GFP reporter [9]; ASK19 pre-treatment then ASK10, FIG. 18): extends along the bottom of the graph | GFP+ events over time, ASK19/ASK10-15 curve (DUX4-GFP reporter [9]; ASK19 pre-treatment then ASK10-15, FIG. 18): extends along the bottom of the graph | rescue of ASK10- and ASK10 analog-induced DUX4 activation (DUX4-GFP reporter [9]; pre-treatment with ASK19): rescues | toxicity (cell count) [2]: not toxic | toxicity (cell counts) ([5]; any of the cell lines under any treatment regimen): not toxic | DUX4-positive cells [10]: suppressed DUX4 expression and/or function

CN1C(=O)[C@@]23C[C@]4([C@]56C[C@@]78SS[C@@](CO)(C(=O)N7[C@H]5Nc5ccccc56)N(C)C8=O)c5ccccc5N[C@@H]4N2C(=O)[C@]1(CO)SS3 [chaetocin]
toxicity [11]: only mild toxicity | chaetocin concentration found to induce DUX4 expression (DUX4 expression): 50 to 100 nM
